Legend:
Assay in all cases: relative viability (nuclei count vs DMSO), 5 days (fraction); higher = more cells survive
[1] = compound: CC(C)N(CCCNC(=O)Nc1ccc(C(C)(C)C)cc1)C[C@H]1O[C@@H](n2ccc3c(N)ncnc32)[C@H](O)[C@@H]1O + Cc1cc(Nc2cc(N3CCN(C)CC3)nc(Sc3ccc(NC(=O)C4CC4)cc3)n2)n[nH]1 [Tozasertib] (partner 0.1 µM)
Procedure, shortened: (§1)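 One day after seeding in 1536-well plates, lung cancer cell lines were dosed by pin tool. Dosing was either single-drug or a fixed anchor-drug dose plus five library-drug doses (not always all listed) in √10 steps. After 5 days, nuclei were stained in one fix-and-stain step and counted on 4× images, and relative viability is the nuclei count of treated wells over that of vehicle wells, given as the median of duplicate plates.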

[2] = compound: CC(C)N(CCCNC(=O)Nc1ccc(C(C)(C)C)cc1)C[C@H]1O[C@@H](n2ccc3c(N)ncnc32)[C@H](O)[C@@H]1O + Nc1nc2[nH]cc(CCc3ccc(C(=O)N[C@@H](CCC(=O)O)C(=O)O)cc3)c2c(=O)[nH]1 [Pemetrexed] (partner 0.2 µM)
Procedure, shortened: as §1

Shikonin + Pemetrexed = compound: CC(C)=CC[C@@H](O)C1=CC(=O)c2c(O)ccc(O)c2C1=O [Shikonin] + Nc1nc2[nH]cc(CCc3ccc(C(=O)N[C@@H](CCC(=O)O)C(=O)O)cc3)c2c(=O)[nH]1 [Pemetrexed] (partner 0.2 µM)
Procedure, shortened: as §1

[3] = compound: CC(C)N(CCCNC(=O)Nc1ccc(C(C)(C)C)cc1)C[C@H]1O[C@@H](n2ccc3c(N)ncnc32)[C@H](O)[C@@H]1O + COc1cc2c(Oc3ccc(NC(=O)C4(C(=O)Nc5ccc(F)cc5)CC4)cc3F)ccnc2cc1OCCCN1CCOCC1 [Foretinib] (partner 0.25 µM)
Procedure, shortened: as §1

EKVX
relative viability ([1]; first compound 0.08 µM): 0.449 | relative viability ([1]; first compound 0.253 µM): 0.347 | relative viability ([1]; first compound 0.8 µM): 0.373 | relative viability ([1]; first compound 2.53 µM): 0.434 | relative viability ([1]; first compound 8 µM): 0.388 | relative viability ([2]; first compound 0.08 µM): 0.44 | relative viability ([2]; first compound 0.253 µM): 0.325 | relative viability ([2]; first compound 0.8 µM): 0.413 | relative viability ([2]; first compound 2.53 µM): 0.464 | relative viability ([2]; first compound 8 µM): 0.404 | relative viability (Shikonin + Pemetrexed; first compound 0.01 µM): 0.438 | relative viability (Shikonin + Pemetrexed; first compound 0.1 µM): 0.435 | relative viability (Shikonin + Pemetrexed; first compound 0.3162 µM): 0.472 | relative viability (Shikonin + Pemetrexed; first compound 1 µM): 0.362 | relative viability ([3]; first compound 0.08 µM): 0.787 | relative viability ([3]; first compound 0.253 µM): 0.793 | relative viability ([3]; first compound 0.8 µM): 0.804 | relative viability ([3]; first compound 2.53 µM): 0.801 | relative viability ([3]; first compound 8 µM): 0.665

NCI-H358
relative viability ([1]; first compound 0.08 µM): 0.112 | relative viability ([1]; first compound 0.253 µM): 0.117 | relative viability ([1]; first compound 0.8 µM): 0.119 | relative viability ([1]; first compound 2.53 µM): 0.0915 | relative viability ([1]; first compound 8 µM): 0.112 | relative viability ([2]; first compound 0.08 µM): 0.183 | relative viability ([2]; first compound 0.253 µM): 0.159 | relative viability ([2]; first compound 0.8 µM): 0.162 | relative viability ([2]; first compound 2.53 µM): 0.168 | relative viability ([2]; first compound 8 µM): 0.166 | relative viability (Shikonin + Pemetrexed; first compound 0.01 µM): 0.159 | relative viability (Shikonin + Pemetrexed; first compound 0.1 µM): 0.182 | relative viability (Shikonin + Pemetrexed; first compound 0.3162 µM): 0.172 | relative viability (Shikonin + Pemetrexed; first compound 1 µM): 0.154 | relative viability ([3]; first compound 0.08 µM): 0.548 | relative viability ([3]; first compound 0.253 µM): 0.63 | relative viability ([3]; first compound 0.8 µM): 0.67 | relative viability ([3]; first compound 2.53 µM): 0.662 | relative viability ([3]; first compound 8 µM): 0.58

EPLC-272H
relative viability ([1]; first compound 0.08 µM): 0.315 | relative viability ([1]; first compound 0.253 µM): 0.215 | relative viability ([1]; first compound 0.8 µM): 0.287 | relative viability ([1]; first compound 2.53 µM): 0.217 | relative viability ([1]; first compound 8 µM): 0.244 | relative viability ([2]; first compound 0.08 µM): 0.404 | relative viability ([2]; first compound 0.253 µM): 0.303 | relative viability ([2]; first compound 0.8 µM): 0.298 | relative viability ([2]; first compound 2.53 µM): 0.341 | relative viability ([2]; first compound 8 µM): 0.396 | relative viability (Shikonin + Pemetrexed; first compound 0.01 µM): 0.264 | relative viability (Shikonin + Pemetrexed; first compound 0.1 µM): 0.314 | relative viability (Shikonin + Pemetrexed; first compound 0.3162 µM): 0.334 | relative viability (Shikonin + Pemetrexed; first compound 1 µM): 0.297 | relative viability ([3]; first compound 0.08 µM): 0.688 | relative viability ([3]; first compound 0.253 µM): 0.469 | relative viability ([3]; first compound 0.8 µM): 0.73 | relative viability ([3]; first compound 2.53 µM): 0.845 | relative viability ([3]; first compound 8 µM): 0.669

NCI-H1395
relative viability ([1]; first compound 0.08 µM): 0.727 | relative viability ([1]; first compound 0.253 µM): 0.731 | relative viability ([1]; first compound 0.8 µM): 0.63 | relative viability ([1]; first compound 2.53 µM): 0.774 | relative viability ([1]; first compound 8 µM): 0.741 | relative viability ([2]; first compound 0.08 µM): 0.882 | relative viability ([2]; first compound 0.253 µM): 0.705 | relative viability ([2]; first compound 0.8 µM): 0.553 | relative viability ([2]; first compound 2.53 µM): 0.899 | relative viability ([2]; first compound 8 µM): 0.922 | relative viability (Shikonin + Pemetrexed; first compound 0.01 µM): 0.84 | relative viability (Shikonin + Pemetrexed; first compound 0.1 µM): 0.944 | relative viability (Shikonin + Pemetrexed; first compound 0.3162 µM): 0.85 | relative viability (Shikonin + Pemetrexed; first compound 1 µM): 1.01 | relative viability ([3]; first compound 0.08 µM): 0.957 | relative viability ([3]; first compound 0.253 µM): 0.839 | relative viability ([3]; first compound 0.8 µM): 0.909 | relative viability ([3]; first compound 2.53 µM): 0.967 | relative viability ([3]; first compound 8 µM): 0.853

NCI-H2228
relative viability ([1]; first compound 0.08 µM): 0.261 | relative viability ([1]; first compound 0.253 µM): 0.314 | relative viability ([1]; first compound 0.8 µM): 0.264 | relative viability ([1]; first compound 2.53 µM): 0.277 | relative viability ([1]; first compound 8 µM): 0.23 | relative viability ([2]; first compound 0.08 µM): 0.336 | relative viability ([2]; first compound 0.253 µM): 0.326 | relative viability ([2]; first compound 0.8 µM): 0.313 | relative viability ([2]; first compound 2.53 µM): 0.298 | relative viability ([2]; first compound 8 µM): 0.337 | relative viability (Shikonin + Pemetrexed; first compound 0.01 µM): 0.314 | relative viability (Shikonin + Pemetrexed; first compound 0.1 µM): 0.355 | relative viability (Shikonin + Pemetrexed; first compound 0.3162 µM): 0.38 | relative viability (Shikonin + Pemetrexed; first compound 1 µM): 0.355 | relative viability ([3]; first compound 0.08 µM): 0.865 | relative viability ([3]; first compound 0.253 µM): 0.895 | relative viability ([3]; first compound 0.8 µM): 0.931 | relative viability ([3]; first compound 2.53 µM): 0.976 | relative viability ([3]; first compound 8 µM): 0.905

LXF-289
relative viability ([1]; first compound 0.08 µM): 0.167 | relative viability ([1]; first compound 0.253 µM): 0.199 | relative viability ([1]; first compound 0.8 µM): 0.131 | relative viability ([1]; first compound 2.53 µM): 0.176 | relative viability ([1]; first compound 8 µM): 0.174 | relative viability ([2]; first compound 0.08 µM): 0.876 | relative viability ([2]; first compound 0.253 µM): 1 | relative viability ([2]; first compound 0.8 µM): 0.96 | relative viability ([2]; first compound 2.53 µM): 1.02 | relative viability ([2]; first compound 8 µM): 0.833 | relative viability (Shikonin + Pemetrexed; first compound 0.01 µM): 0.892 | relative viability (Shikonin + Pemetrexed; first compound 0.1 µM): 0.959 | relative viability (Shikonin + Pemetrexed; first compound 0.3162 µM): 0.955 | relative viability (Shikonin + Pemetrexed; first compound 1 µM): 0.945 | relative viability ([3]; first compound 0.08 µM): 0.96 | relative viability ([3]; first compound 0.253 µM): 1.03 | relative viability ([3]; first compound 0.8 µM): 0.94 | relative viability ([3]; first compound 2.53 µM): 1.01 | relative viability ([3]; first compound 8 µM): 0.94

NCI-H2023
relative viability ([1]; first compound 0.08 µM): 0.437 | relative viability ([1]; first compound 0.253 µM): 0.38 | relative viability ([1]; first compound 0.8 µM): 0.345 | relative viability ([1]; first compound 2.53 µM): 0.375 | relative viability ([1]; first compound 8 µM): 0.338 | relative viability ([2]; first compound 0.08 µM): 0.246 | relative viability ([2]; first compound 0.253 µM): 0.246 | relative viability ([2]; first compound 0.8 µM): 0.232 | relative viability ([2]; first compound 2.53 µM): 0.215 | relative viability ([2]; first compound 8 µM): 0.213 | relative viability (Shikonin + Pemetrexed; first compound 0.01 µM): 0.239 | relative viability (Shikonin + Pemetrexed; first compound 0.1 µM): 0.235 | relative viability (Shikonin + Pemetrexed; first compound 0.3162 µM): 0.221 | relative viability (Shikonin + Pemetrexed; first compound 1 µM): 0.262 | relative viability ([3]; first compound 0.08 µM): 0.811 | relative viability ([3]; first compound 0.253 µM): 0.958 | relative viability ([3]; first compound 0.8 µM): 1.02 | relative viability ([3]; first compound 2.53 µM): 1.03 | relative viability ([3]; first compound 8 µM): 0.773
